Experimental data taken from ChEMBL document CHEMBL5579899, “Discovery and In Vivo Exploration of 1,3,4-Oxadiazole and α-Fluoroacrylate Containing IL-17 Inhibitors” (J Med Chem, 2024).
Converted amounts (≈) assume the structure as drawn.

Key:
[1] = Apparent permeability coefficient of the compound across apical to basolateral side in dog MDCK cells by high-throughput analysis; format: ADME, cell-based, Canis lupus familiaris
[2] = Metabolic stability in rat liver microsomes assessed as intrinsic clearance; format: ADME, Microsome; conditions: read-out: CLH
[3] = Inhibition of biotinylated human IL-17A/AF647-labeled human IL-17RA protein-protein interaction preincubated for 30 mins with compound followed by addition of AF647-labeled human IL-17RA incubated for 90 min by TR-FRET assay
[4] = Metabolic stability in human liver microsomes assessed as intrinsic clearance; format: ADME, Microsome; conditions: read-out: CLH
[5] = Lipophilicity, logD of compound at pH 7.4; format: physicochemical; conditions: buffer
[6] = Inhibition of IL-6 production in IL-17/TNF-alpha stimulated human NHDF cells incubated for 24 hrs by ELISA; format: functional, cell-based; conditions: 24 h
[7] = Equilibrium solubility of compound […] at pH 6.8 by high-throughput analysis; format: physicochemical
[8] = AUC in Sprague-Dawley rat at 3 mg/kg,po measured upto 24 hrs by LC-MS/MS analysis; format: ADME, organism-based; conditions: in vivo; for AUC: po, 3 mg/kg, 24 h; for AUC at 24 h: Sprague-Dawley
[9] = test system: Rattus norvegicus; assay: Antiarthritic activity in antigen-induced arthritis Lewis rat model assessed as reduction in knee swelling at 10 mg/kg,po bid administrated for 4 days; format: functional; design: scale not given: the % may be the effect or the level left; conditions: time 4 day
[10] = Oral bioavailability in Sprague-Dawley rat at 3 mg/kg measured upto 24 hrs by LC-MS/MS analysis; format: ADME, organism-based; conditions: in vivo; for F: po, 3 mg/kg, 24 h; for bioavailability: Sprague-Dawley
[11] = Plasma clearance in Sprague-Dawley rat at 1 mg/kg,iv measured upto 24 hrs by LC-MS/MS analysis; format: ADME, organism-based
[12] = Hepatotoxicity in dog assessed as increase in serum liver enzyme at 50 mg/kg administration measured after 3 days; format: toxicity, organism-based, Canis lupus familiaris; conditions: in vivo, 72 h, time 3 day

SMILES | Papp A→B [1] [×10⁻⁶ cm/s] | microsomal CLint [2] [µL/min/mg] | IC50 [3] [nM] | microsomal CLint [4] [µL/min/mg] | logD [5] | IC50 [6] [nM] | solubility [7] [µM] | AUC [8] [µM·h] | Activity [9] [%] | F [10] [%] | AUC at 24 h [8] [µM·h] | clearance [11] [mL/min/kg] | bioavailability [10] [%] | Activity [12]
COC[C@H](c1cnn2cc([C@@H](NC(=O)C(F)=C(C)C)C3CCC(F)(F)CC3)nc2c1)N1C[C@@H](C(F)(F)F)NC1=O | 25 | > 1000 | 19 | 161 | 3.2 | 8 | 340 (≈ 196 µg/mL) | – | – | – | – | – | – | –
COC[C@H](c1cnn2cc([C@@H](Nc3nnc(C(C)(F)F)o3)C3CCC(F)(F)CC3)nc2c1)N1C[C@@H](C(F)(F)F)NC1=O | 3.6 | 18 | 38 | 37 | 3 | 8 | 400 (≈ 243 µg/mL) | 0.946 | 64 | 41 | – | – | – | –
C/C=C(\F)C(=O)N[C@H](c1cn2ncc([C@@H](COC)N3C[C@@H](C(F)(F)F)NC3=O)cc2n1)C1CCC(F)(F)CC1 | 9.7 | 166 | 19 | 90 | 3 | 7 | 700 (≈ 394 µg/mL) | – | – | – | – | – | – | –
COC[C@H](c1cnn2cc([C@@H](NC(=O)c3nonc3C)C3CCC(F)(F)CC3)nc2c1)N1C[C@@H](C(F)(F)F)NC1=O [LY-3509754] | 11 | 20 | 10 | 32 | 3.1 | 4 | 380 (≈ 223 µg/mL) | – | – | – | 5.43 | 24 | 119 | –
COC[C@H](c1cnn2cc([C@@H](Nc3noc(C(C)(F)F)n3)C3CCC(F)(F)CC3)nc2c1)N1C[C@@H](C(F)(F)F)NC1=O | 20 | 33 | 30 | 49 | 3.7 | 27 | 130 (≈ 79.1 µg/mL) | – | – | – | – | – | – | –
COC[C@H](c1cnn2cc([C@@H](Nc3cc(C)on3)C3CCC(F)(F)CC3)nc2c1)N1C[C@@H](C(F)(F)F)NC1=O | 3.3 | 156 | 62 | 42 | 2.9 | 75 | 600 (≈ 335 µg/mL) | – | – | – | – | – | – | –
C/C=C(/F)C(=O)N[C@H](c1cn2ncc([C@@H](COC)N3C[C@@H](C(F)(F)F)NC3=O)cc2n1)C1CCC(F)(F)CC1 | 17 | 240 | 11 | 159 | 3 | 4 | 600 (≈ 338 µg/mL) | 0.053 | – | 55 | – | – | – | –
COC[C@H](c1cnn2cc([C@@H](NC(=O)C(C)(F)F)C3CCC(F)(F)CC3)nc2c1)N1C[C@@H](C(F)(F)F)NC1=O | 5.5 | 26 | 85 | 15 | 2.5 | 74 | > 750 | – | – | – | – | – | – | –
CC(F)(F)c1nnc(N[C@H](c2cn3ncc([C@@H](C4CC4)N4C[C@@H](C(F)(F)F)NC4=O)cc3n2)C2CCC(F)(F)CC2)o1 | 10 | 37 | 21 | 66 | 3.9 | 6 | 45 (≈ 27.2 µg/mL) | – | 68 | – | 0.569 | 56 | 41 | Toxic
C=C(F)C(=O)N[C@H](c1cn2ncc([C@@H](COC)N3C[C@@H](C(F)(F)F)NC3=O)cc2n1)C1CCC(F)(F)CC1 | 6.5 | 33 | 31 | 11 | 2.5 | 27 | > 750 | 0.025 | – | 113 | – | – | – | –
